Several values for one entry are separate records, joined by “and”; a condition that tells them apart may be missing. Equal entries are not always repeated. Where two headings read alike, the source gives them in different places.
Assays:
[1] = tested on: HIV transcripts (TAR, LLTR, Pol, PolyA, TatRev); assay: Latency reversal assay: cell-associated HIV transcripts (RT-ddPCR) 24 hours after anti-CD3/CD28 activation of PBMCs from ART-suppressed PWH; type: cell-based; set-up: Elongated (LLTR) HIV transcripts, median relative to activated DMSO, initial screening / Midtranscribed (Pol) HIV transcripts, median relative to activated DMSO, initial screening / Multiply spliced (TatRev) HIV transcripts, median relative to activated DMSO, initial screening: concentration or dose not given beside the values; conditions: for Effect on HIV transcripts in the initial drug screen (in words) / Multiply spliced (TatRev) HIV transcripts, median relative to activated DMSO, initial screening / Completed (PolyA) HIV transcripts, median relative to activated DMSO, initial screening: initial screening, 2 participants; for Effect on HIV transcripts in the initial drug screen (in words): 24 hours after activation; for Multiply spliced (TatRev) HIV transcripts, median relative to activated DMSO, initial screening / Multiply spliced HIV transcripts (TatRev) (Fig 1B) / Completed (PolyA) HIV transcripts, median relative to activated DMSO, initial screening: 24 hours; for Multiply spliced (TatRev) HIV transcripts, median relative to activated DMSO, initial screening: Figure 1B; for Multiply spliced (TatRev) HIV transcripts, median relative to activated DMSO, initial screening / Completed (PolyA) HIV transcripts, median relative to activated DMSO, initial screening: Supplemental Figure 2; for mrna remaining at 0.1 µM: 100nM
Description: We selected 26 small molecules targeting pathways implicated in HIV transcription or the blocks to HIV transcription underlying latency (Supplemental Table 1). […] Initial screening of all drugs was performed in freshly isolated PBMCs from 2 ART-suppressed individuals (Figure 1 and Supplemental Figure 2). PBMCs were cultured in the presence of individual drugs in DMSO or DMSO alone as a control, subsequently activated (anti-CD3/CD28), and harvested after 24 hours. […] The progression through different blocks to HIV transcription was quantified by measuring the levels of initiated (TAR), 5′ elongated (LLTR), midtranscribed/unspliced (Pol), completed (PolyA), and multiply spliced (TatRev) HIV transcripts. The levels of those HIV transcripts were normalized to 1 μg of total cellular RNA (to normalize for the effect of the drug on global cellular transcription) and expressed as a percentage of the activated DMSO control.
(§1) Figure 1 Screening of candidate LPAs by measuring the change in multiply spliced HIV transcripts after activation. Each drug was tested in PBMCs from 2 ART-suppressed study participants (denoted in the legend by varying symbol shapes). PBMCs were aliquoted into wells at 6 × 10^6 cells/well. After activation, the cells were cultured with antiretrovirals in the presence of individual drugs in DMSO or DMSO alone as control. All conditions were tested in the presence of CD3/28 T cell–activating beads, except for the unactivated DMSO condition. (A) After 24 hours, the viability was measured by trypan blue staining and then normalized to the levels of the activated DMSO (% of activated DMSO). Bars indicate medians. (B) Total cellular RNA was extracted, and the levels of multiply spliced HIV transcripts (TatRev) were measured by RT-ddPCR, normalized to 1 μg of total cellular RNA, and expressed as a percentage of the activated DMSO control (% of activated DMSO). RT-dd, reverse transcription digital droplet; vRNA, viral RNA; HAT, histone acetyltransferase.
The ability of our candidate LPAs to inhibit HIV transcriptional progression after activation was examined in PBMCs from a minimum of 7 PWH per drug tested (Figure 3). PBMCs were cultured in the presence of individual drugs in DMSO or in DMSO alone as a control, subsequently activated (anti-CD3/CD28), and harvested after 24 hours.
Each drug was tested in PBMCs from 7 ART-suppressed study participants. The PBMCs were aliquoted into wells at 6 × 10^6 cells/well. After activation, the cells were cultured with antiretrovirals in the presence of individual drugs in DMSO or DMSO alone as control. All conditions were tested in the presence of CD3/28 T cell–activating beads, except for the unactivated DMSO condition. After 24 hours, total RNA was extracted, and the progression through different stages of HIV transcription was quantified by measuring the levels of initiated (TAR), 5′ elongated (LLTR), midtranscribed/unspliced (Pol), completed (PolyA), and multiply spliced (TatRev) HIV transcripts. (A) The levels of all HIV transcripts were normalized to 1 μg of total cellular RNA and expressed as a percentage of the activated DMSO control (% of activated DMSO). Medians are shown as well as the individual values per study participant in different colors. (B–D) The effect of each drug on HIV transcriptional progression after activation was analyzed by the ratio of one HIV transcript to another. Ratios are independent of HIV infection frequency or normalization to cell numbers. Shown are the proportion of (B) all HIV transcripts that were elongated (LLTR/TAR), (C) elongated HIV transcripts that were completed spliced (PolyA/LLTR), and (D) completed transcripts that were multiply spliced (TatRev/PolyA).

[2] = tested on: PBMCs; assay: Cell viability by trypan blue staining after 24 hours; type: cell-based, human
Description: as §1
For quantification of cell-associated HIV transcripts, PBMCs were harvested either after 24 hours or after 6 days. The cell viabilities were measured by trypan blue staining; then the cells were pelleted by centrifuging at 300g for 6 minutes and stored at –80°C. For quantification of virion-associated HIV RNA, cell culture supernatant was collected from 6 × 10^6 PBMCs that were treated and activated for 6 days as described above. Residual cells and cellular debris were subsequently removed from the supernatant by differential centrifugation (300g for 6 minutes, then 20,000g for 10 minutes), and the supernatant was stored at –80°C.

[3] = 10μM, 24 h after αCD3/28 activation, each column one participant

Row | SMILES | Effect on HIV transcripts in the initial drug screen (in words) [1] | Viability (Fig 1A) ([2]; study participant 150a) | Viability (Fig 1A) ([2]; study participant 152) | further results
1 | Nc1nc2nn[nH]c2c(=O)[nH]1 [8-azaguanine] | did not observe decreases | 106.88 % of activated DMSO | 98.65 % of activated DMSO | Multiply spliced (TatRev) HIV transcripts, median relative to activated DMSO, initial screening [1]: increase in multiply spliced transcripts
2 | CCCCCCCCCCCCCCC=C(C(=O)OCC)C(=O)OCC [SPV-106] | did not observe any reduction | 103.1 % of activated DMSO | 97.61 % of activated DMSO | LLTR HIV transcripts (DMSO+αCD3/28 = 100) [1, 3]: 123.81 and 93.28; Pol HIV transcripts (DMSO+αCD3/28 = 100) [1, 3]: 71.05 and 12.29; PolyA HIV transcripts (DMSO+αCD3/28 = 100) [1, 3]: 64.82 and 38.96; TatRev HIV transcripts (DMSO+αCD3/28 = 100) [1, 3]: 60.34 and 263.16; Multiply spliced HIV transcripts (TatRev) (Fig 1B) ([1]; study participant 150a): 60.34 % of activated DMSO; Multiply spliced HIV transcripts (TatRev) (Fig 1B) ([1]; study participant 152): 263.16 % of activated DMSO
3 | CC(=O)Oc1ccccc1C(=O)O [aspirin] | did not observe much reduction | 99.56 % of activated DMSO | 95.5 % of activated DMSO | –
4 | COc1cc(F)ccc1-c1ncnc(Nc2cccc(C[S@](C)(=N)=O)c2)n1 [atuveciclib] | – | 108.3 % of activated DMSO | 95.7 % of activated DMSO | Multiply spliced (TatRev) HIV transcripts, median relative to activated DMSO, initial screening [1]: 46%
5 | Nc1ncnc2c1ncn2[C@@H]1O[C@H](CO)C[C@H]1O [cordycepin] | did not observe any reduction | 101.9 % of activated DMSO | 92.02 % of activated DMSO | –
6 | C[C@H]1O[C@@H](O[C@H]2[C@@H](O)C[C@H](O[C@H]3[C@@H](O)C[C@H](O[C@H]4CC[C@@]5(C)[C@H](CC[C@@H]6[C@@H]5C[C@@H](O)[C@]5(C)[C@@H](C7=CC(=O)OC7)CC[C@]65O)C4)O[C@@H]3C)O[C@@H]2C)C[C@H](O)[C@@H]1O [digoxin] | did not observe decreases | 98.44 % of activated DMSO | 105.27 % of activated DMSO | mrna remaining at 0.0025 µM ([1]; Human immunodeficiency virus 1, PBMC, 24 h, 2.5nM, 24 h after αCD3/28 activation, each column one participant, read-out: PolyA HIV transcripts (DMSO+αCD3/28 = 100)): 87%
7 | Cn1cc(C2=C(c3cn(C4CCN(Cc5ccccn5)CC4)c4ccccc34)C(=O)NC2=O)c2ccccc21 [enzastaurin] | – | 100.98 % of activated DMSO | 98.98 % of activated DMSO | –
8 | Nc1ccc(O)c(C(=O)O)c1 [mesalamine] | did not observe any reduction | 102.78 % of activated DMSO | 98.77 % of activated DMSO | –
9 | Oc1ccc(/C=C/c2cc(O)cc(O)c2)cc1 [resveratrol] | – | 102.48 % of activated DMSO | 91.76 % of activated DMSO | –
10 | CN1CCN(c2nc(C3=C(c4c[nH]c5ccccc45)C(=O)NC3=O)c3ccccc3n2)CC1 [sotrastaurin] | – | 103.88 % of activated DMSO | 98.33 % of activated DMSO | mrna remaining at 0.1 µM ([1]; Human immunodeficiency virus 1, PBMC, 24 h, 24 h after αCD3/28 activation, each column one participant, read-out: LLTR HIV transcripts (DMSO+αCD3/28 = 100)): 99.4%; mrna remaining at 0.1 µM ([1]; Human immunodeficiency virus 1, PBMC, 24 h, 24 h after αCD3/28 activation, each column one participant, read-out: Pol HIV transcripts (DMSO+αCD3/28 = 100)): 51.5%; mrna remaining at 0.1 µM ([1]; Human immunodeficiency virus 1, PBMC, 24 h, 24 h after αCD3/28 activation, each column one participant, read-out: PolyA HIV transcripts (DMSO+αCD3/28 = 100)): 39.3%; Completed (PolyA) HIV transcripts, median relative to activated DMSO, initial screening [1]: 41%
11 | CC(=O)S[C@@H]1CC2=CC(=O)CC[C@]2(C)[C@H]2CC[C@@]3(C)[C@@H](CC[C@@]34CCC(=O)O4)[C@H]12 [spironolactone] | little reduction | 102.53 % of activated DMSO | 102.65 % of activated DMSO | –
12 | CN[C@@H]1C[C@H]2O[C@@](C)([C@@H]1OC)n1c3ccccc3c3c4c(c5c6ccccc6n2c5c31)C(=O)NC4 [staurosporine] | – | 109.29 % of activated DMSO | 100.37 % of activated DMSO | Completed (PolyA) HIV transcripts, median relative to activated DMSO, initial screening [1]: 41%
